Assay results reported in publication PMC7802075 (ACS Infectious Diseases, 2020).

target: T1, LmjIPCS (inositol phosphorylceramide synthase from L. major) (Leishmania major, UniProt E9AFX2); assay: biochemical; format: biochemical; design: inhibition: dose or concentration left out as unconfirmed; settings: not given
T1 sequence (E9AFX2 1-338): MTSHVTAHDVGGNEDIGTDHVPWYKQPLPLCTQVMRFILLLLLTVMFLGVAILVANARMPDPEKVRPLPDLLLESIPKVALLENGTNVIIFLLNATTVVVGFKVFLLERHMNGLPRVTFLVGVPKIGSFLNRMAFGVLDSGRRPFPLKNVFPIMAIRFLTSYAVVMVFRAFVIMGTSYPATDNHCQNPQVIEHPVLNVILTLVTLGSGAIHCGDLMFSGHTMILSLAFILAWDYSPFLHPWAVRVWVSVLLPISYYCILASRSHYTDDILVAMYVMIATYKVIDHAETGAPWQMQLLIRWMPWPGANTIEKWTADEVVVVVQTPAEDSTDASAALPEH

Q: Which “20mM inhibition LmjIPCS” value does the source give for `C[C@]12CCC3c4ccc(OS(=O)(=O)[O-])cc4CCC3C1CC[C@H]2O.[Na+]` (stereo partly shown) [ESTRADIOL-3-SULFATE, SODIUM SALT] here?
A: 5.4%

Q: For `CNC(Cc1c[nH]c2ccccc12)C(=O)O` (stereo not shown) [ABRINE (L)], which “20mM inhibition LmjIPCS” value is on record?
A: -1%

Q: With `COc1ccc2c(c1)[C@]13CCCC[C@@H]1[C@H](C2)N(C)CC3` [DEXTROMETHORPHAN] as the compound, how does the “20mM inhibition LmjIPCS” value read?
A: 64%

Q: Which “20mM inhibition LmjIPCS” value does the source give for `CCOc1nc2cccc(C(=O)OC(C)OC(=O)OC3CCCCC3)c2n1Cc1ccc(-c2ccccc2-c2nn[nH]n2)cc1` (stereo not shown) [CANDESARTAN CILEXTIL] here?
A: 11%

Q: With `CC(=O)N[C@@H](CS)C(=O)O` [ACETYLCYSTEINE] as the compound, how does the “20mM inhibition LmjIPCS” value read?
A: 53%

Q: For `CO/N=C(\C(=O)N[C@@H]1C(=O)N2C(C(=O)OCOC(=O)C(C)(C)C)=C(/C=C\c3scnc3C)CS[C@H]12)c1csc(N)n1` [CEFDITORIN PIVOXIL], which “20mM inhibition LmjIPCS” value is on record?
A: 10%

Q: With `NCC(O)CC(=O)O` (stereo not shown) [AMINOHYDROXYBUTYRIC ACID] as the compound, how does the “20mM inhibition LmjIPCS” value read?
A: 4%

Q: With `Cc1cc(=O)n(-c2ccccc2)n1C` [ANTIPYRINE] as the compound, how does the “20mM inhibition LmjIPCS” value read?
A: 36%

same assay, conditions: NINDS set screen, single concentration printed as 20mM

Q: How did the “20mM inhibition LmjIPCS” value turn out when `CCCC(C(=O)OCCN(CC)CC)(c1ccccc1)c1ccccc1` [PROADIFEN] was run?
A: 36%

Q: `O=C1C[C@@H](c2ccccc2)Oc2cc(O)cc(O)c21` [PINOCEMBRIN] was tested. Which “20mM inhibition LmjIPCS” value did it give?
A: 35%

Q: `CC(=O)NO` [ACETOHYDROXAMIC ACID] was tested. Which “20mM inhibition LmjIPCS” value did it give?
A: 34%

Q: With `Oc1ccc(Cl)c2cccnc12` [CLOXYQUIN] as the compound, how does the “20mM inhibition LmjIPCS” value read?
A: 59%

Q: Which “20mM inhibition LmjIPCS” value does the source give for `CC[C@@H](C(=O)[C@@H](C)[C@@H](O)[C@H](C)CCc1ccc(C)c(O)c1C(=O)[O-])[C@H]1O[C@](CC)([C@H]2CC[C@](O)(CC)[C@H](C)O2)C[C@@H]1C.[Na+]` [LASALOCID SODIUM] here?
A: 41%

same assay, conditions: NINDS set screen; read-out: inhibition LmjIPCS

Q: For `COc1cc(C(=O)NCc2ccc(OCCN(C)C)cc2)cc(OC)c1OC` [TRIMETHOBENZAMIDE], which inhibition is on record?
A: 28%

same assay, conditions: read-out: 20mM inhibition LmjIPCS

Q: Which inhibition at 20000 µM does the source give for `O=C1O[C@H](CO)[C@@H](O)[C@H](O)[C@H]1O` [GLUCONOLACTONE] here?
A: 0.589%

Q: With `CCS(=O)(=O)CCn1c([N+](=O)[O-])cnc1C` [TINIDAZOLE] as the compound, how does the inhibition at 20000 µM read?
A: 15%

Q: `Nc1ccc(S(N)(=O)=O)cc1` [SULFANILAMIDE] was tested. Which inhibition at 20000 µM did it give?
A: -1.19%

Q: How did the inhibition at 20000 µM turn out when `C[C@]12CCC(=O)C(O)=C1CC[C@@H]1[C@@H]2CC[C@]2(C)C(=O)CC[C@@H]12` [FORMESTANE] was run?
A: 18%

Q: Which inhibition at 20000 µM does the source give for `c1ccc([C@H]2CN3CCSC3=N2)cc1` [LEVAMISOLE] here?
A: 2.52%

Q: How did the inhibition at 20000 µM turn out when `NCCc1c[nH]c2ccccc12` [TRYPTAMINE] was run?
A: 27%

Q: Which inhibition at 20000 µM does the source give for `CO[C@H]1C[C@H](O[C@H]2[C@H](C)[C@@H](O[C@@H]3O[C@H](C)C[C@H](N(C)C)[C@H]3O)[C@@H](C)C[C@@]3(CO3)C(=O)[C@H](C)[C@@H](O)[C@@H](C)[C@@H](C)OC(=O)[C@@H]2C)O[C@@H](C)[C@@H]1O` [OLEANDOMYCIN] here?
A: 1.17%

same assay, conditions: read-out: inhibition LmjIPCS

Q: With `C[C@]12CCC(=O)C=C1C=C[C@@H]1[C@@H]2CC[C@@]2(C)[C@H]1CC[C@@]2(O)CCC(=O)O` [CANRENOIC ACID] as the compound, how does the inhibition read?
A: 7%

Q: Which inhibition does the source give for `N[C@@H](Cc1ccc(O)c(O)c1)C(=O)O` [LEVODOPA] here?
A: 21%

Q: With `COC1=CC(=O)C[C@@H](C)[C@]12Oc1c(Cl)c(OC)cc(OC)c1C2=O` [GRISEOFULVIN] as the compound, how does the inhibition read?
A: 28%

Q: How did the inhibition turn out when `CCCCC(=O)N(Cc1ccc(-c2ccccc2-c2nnn[nH]2)cc1)[C@H](C(=O)O)C(C)C` was run?
A: 20%

Q: `CC1=C(CC(=O)O)c2cc(F)ccc2/C1=C\c1ccc([S+](C)[O-])cc1` (stereo not shown) was tested. Which inhibition did it give?
A: 12%

Q: With `CC1(C)S[C@@H]2[C@H](NC(=O)Cc3ccccc3)C(=O)N2[C@H]1C(=O)O` [BENZYL PENICILLIN] as the compound, how does the inhibition read?
A: 21%

Q: `COc1c(C)c2c(c(O)c1C/C=C(\C)CCC(=O)O)C(=O)OC2` [MYCOPHENOLIC ACID] was tested. Which inhibition did it give?
A: 4%

same assay, conditions: screening of NINDS set, sheet Screen 1; read-out: inhibition LmjIPCS

Q: `O=c1oc2cc(O)ccc2s1` [TIOXOLONE] was tested. Which inhibition did it give?
A: 3%

Q: `Cn1c(=O)[nH]c2nc[nH]c2c1=O` [1-METHYLXANTHINE] was tested. Which inhibition did it give?
A: 11%

Q: How did the inhibition turn out when `CC[C@H]1OC(=O)[C@H](C)[C@@H](O[C@H]2C[C@@](C)(OC)[C@@H](O)[C@H](C)O2)[C@H](C)[C@@H](O[C@@H]2O[C@H](C)C[C@H](N(C)C)[C@H]2O)[C@](C)(OC)C[C@@H](C)C(=O)[C@H](C)[C@@H](O)[C@]1(C)O` [CLARITHROMYCIN] was run?
A: 5.71%
